# Source: patent US11369565B2, “Amino-pyrimidine skeletal muscle modulators” (Cytokinetics, Inc., priority 2010, dated 2022)
# Test system: rabbit skeletal myofibrils (approximately 90% fast fibers)
# Test: Activation of fast skeletal myofibrils (PUMA coupled-enzyme ATPase assay at pCa25)
# Format: biochemical
# Settings: concentration at which the compound increased the enzymatic activity by 40%; calcium at pCa25; PM12 buffer pH 6.8
# Procedure: Preparation of fast skeletal myofibrils. Rabbit skeletal myofibrils were prepared based upon the method of Herrmann et al. (Biochem. 32(28):7255-7263(1993). Myofibrils were prepared from rabbit psoas muscle purchased from Pel-Freez Biologicals (Arkansas) within 2 days of ordering, stored on ice. Minced muscle was homogenized in 10 volumes of ice-cold “standard” buffer (50 mM Tris, pH 7.4, 0.1 M potassium acetate, 5 mM KCl, 2 mM DTT, 0.2 mM PMSF, 10 μM leupeptin, 5 μM pepstatin, and 0.5 mM sodium azide) containing 5 mM EDTA and 0.5% Triton X-100 using an Omni-Macro homogenizer. Myofibrils were recovered by low speed centrifugation (3000 rpm for 10 minutes) and washed 2 times in the Triton X-100 containing buffer to ensure removal of cellular membrane. Following the Triton washes, myofibrils were washed 3 times in “standard” buffer containing 2 mM magnesium acetate. A final wash in assay buffer (12 mM PIPES, pH 6.8, 60 mM KCl, 1 mM DTT) was performed and brought to 10% sucrose for flash freezing in liquid nitrogen and storage at −80° C.
# Activation of Fast Skeletal Myofibrils. Fast fiber activators were identified by measuring the enzymatic activity of muscle myofibril preparations using the proprietary PUMA™ (see, e.g., U.S. Pat. Nos. 6,410,254, 6,743,599, 7,202,051, and 7,378,254) assay system. Myofibril preparations consisted of rabbit skeletal muscle (approximately 90% fast fibers) that had been mechanically homogenized and washed with a detergent (triton X-100) to remove cellular membranes. This preparation retained all of the sarcomeric components in a native conformation and the enzymatic activity was still regulated by calcium. Compounds were tested using a myofibril suspension and a level of calcium sufficient to increase enzymatic activity of the myofibrils to 25% of their maximal rate (termed pCa25). Enzymatic activity was tracked via a pyruvate kinase and lactate dehydrogenase-coupled enzyme system. This assay regenerates myosin-produced ADP into ATP by oxidizing NADH, producing an absorbance change at 340 nm. The buffering system was 12 mM Pipes, 2 mM MgCl2, 1 mM DTT at pH 6.8 (PM12 buffer).
row,SMILES,Mean AC1.4
1,NC(=O)Cc1ccccc1-c1cnc(NC[C@]2(c3ncccc3F)C[C@H](F)C2)nc1 [2-{2-[2-({[3-fluoro-1-(3-fluoro(2-pyridyl))cyclobutyl)]methyl}amino)pyrimidin-5-yl]phenyl)acetamide],C (C=10-20 uM)
2,"NC(=O)Cc1cnc(-c2cnc(NC[C@]3(c4ncccc4F)C[C@H](F)C3)nc2)s1 [2-{2-[2-({[3-fluoro-1-(3-fluoro(2-pyridyl))cyclobutyl]methyl)amino)pyrimidin-5-yl]-1,3-thiazol-5-yl}acetamide]",B (B=1-10 uM)
3,"NC(=O)Cc1cnc(-c2cnc(NCC3(c4ncccc4Cl)CCC3)nc2)s1 [2-{2-[2-({[(3-chloro-2-pyridyl)cyclobutyl]methyl}amino)pyrimidin-5-yl]-1,3-thiazol-5-yl}acetamide]",A (A=<1 uM)
4,"NC(=O)Cc1cnc(-c2cnc(NCC3(c4ncccc4F)CCC3)nc2)s1 [2-{2-[2-({[(3-fluoro-2-pyridyl)cyclobutyl]methyl}amino)pyrimidin-5-yl]-1,3-thiazol-5-yl}acetamide]",B (B=1-10 uM)
5,"N#CCc1cnc(-c2cnc(NCC3(c4ncccc4F)CCC3)nc2)s1 [2-{2-[2-({[(3-fluoro-2-pyridyl)cyclobutyl]methyl}amino)pyrimidin-5-yl]-1,3-thiazol-5-yl}ethanenitrile]",B (B=1-10 uM)
6,Cc1nc(NC[C@]2(c3ncccc3F)C[C@H](F)C2)ncc1-c1cccc(CC(N)=O)c1 [2-{3-[2-({[3-fluoro-1-(3-fluoro(2-pyridyl))cyclobutyl]methyl}amino)-4-methylpyrimidin-5-yl]phenyl}acetamide],C (C=10-20 uM)
7,Cc1nc(NC[C@]2(c3ncccc3F)C[C@H](F)C2)ncc1-c1ccc(CC(N)=O)cc1 [2-{4-[2-({[3-fluoro-1-(3-fluoro(2-pyridyl))cyclobutyl]methyl}amino)-4-methylpyrimidin-5-yl]phenyl}acetamide],B (B=1-10 uM)
8,Cc1nc(NC[C@]2(c3ncccc3F)C[C@H](F)C2)ncc1-c1ccc(CC(=O)O)cc1 [2-{4-[2-({[3-fluoro-1-(3-fluoro(2-pyridyl))cyclobutyl]methyl}amino)-4-methylpyrimidin-5-yl]phenyl}acetic acid],D (D=>20 uM)
9,CC(C)(Nc1ncc(C#N)cn1)c1ncccc1Cl [2-{[1-(3-chloro(2-pyridyl))-isopropyl]amino}pyrimidine-5-carbonitrile],D (D=>20 uM)
10,CC(C)(Nc1ncc(C(N)=O)cn1)c1ncccc1Cl [2-{[1-(3-chloro(2-pyridyl))-isopropyl]amino}pyrimidine-5-carboxamide],D (D=>20 uM)
11,"CC(C)(CNc1ncc2c(n1)CN(C(N)=O)CC2)c1ccc(F)cc1 [2-{[2-(4-fluorophenyl)-2-methylpropyl]amino}-5,6,7,8-tetrahydropyridino[3,4-d]pyrimidine-7-carboxamide]",D (D=>20 uM)
12,"CC(C)(CNc1ncc2c(n1)CCN(S(C)(=O)=O)C2)c1ccc(F)cc1 [2-{[2-(4-fluorophenyl)-2-methylpropyl]amino}-6-(methylsulfonyl)-5,6,7,8-tetrahydropyridino[4,3-d]pyrimidine]",B (B=1-10 uM)
13,"CC(C)(CNc1ncc2c(n1)CN(S(C)(=O)=O)CC2)c1ccc(F)cc1 [2-{[2-(4-fluorophenyl)-2-methylpropyl]amino}-7-(methylsulfonyl)-5,6,7,8-tetrahydropyridino[3,4-d]pyrimidine]",C (C=10-20 uM)
14,O=C(O)CNC(=O)c1cnc(NCC2(c3ncccc3F)CCC2)nc1 [2-{[2-({[(3-fluoro-2-pyridyl)cyclobutyl]methyl}amino)pyrimidin-5-yl]carbonylamino} acetic acid],D (D=>20 uM)
15,NC(=O)c1cnc(NC2(c3ncccc3F)CCC2)nc1C(F)(F)F [2-{[(3-fluoro(2-pyridyl))cyclobutyl]amino)-4-(trifluoromethyl)pyrimidine-5-carboxamide],D (D=>20 uM)
16,O=C(O)c1cnc(NC2(c3ncccc3F)CCC2)nc1C(F)(F)F [2-{[(3-fluoro(2-pyridyl))cyclobutyl]amino}-4-(trifluoromethyl)pyrimidine-5-carboxylic acid],D (D=>20 uM)
17,N#Cc1cnc(NC2(c3ncccc3F)CCC2)nc1 [2-{[(3-fluoro-2-pyridyl)cyclobutyl]amino} pyrimidine-5-carbonitrile],D (D=>20 uM)
18,NC(=O)c1ccc2nc(NC3(c4ncccc4F)CCC3)ncc2c1 [2-{[(3-fluoro-2-pyridyl)cyclobutyl]amino} quinazoline-6-carboxamide],D (D=>20 uM)
19,NC(=O)c1cnc(NC2(c3ncccc3F)CCC2)nc1 [2-{[(3-fluoro-2-pyridyl)cyclobutyl]amino}pyrimidine-5-carboxamide],D (D=>20 uM)

row,SMILES,Mean AC1.4
1,N#Cc1ccc2nc(NC3(c4ncccc4F)CCC3)ncc2c1 [2-{[(3-fluoro-2-pyridyl)cyclobutyl]amino}quinazoline-6-carbonitrile],D (D=>20 uM)
2,N#Cc1ccnc(NC2(c3ccc(F)cc3)CCC2)n1 [2-{[(4-fluorophenyl)cyclobutyl]amino} pyrimidine-4-carbonitrile],D (D=>20 uM)
3,NC(=O)c1ccnc(NC2(c3ccc(F)cc3)CCC2)n1 [2-{[(4-fluorophenyl)cyclobutyl]amino} pyrimidine-4-carboxamide],C (C=10-20 uM)
4,N#Cc1cnc(NC2(c3ccc(F)cc3)CCC2)nc1 [2-{[(4-fluorophenyl)cyclobutyl]amino} pyrimidine-5-carbonitrile],C (C=10-20 uM)
5,NC(=O)c1cnc(NC2(c3ccc(F)cc3)CCC2)nc1 [2-{[(4-fluorophenyl)cyclobutyl]amino} pyrimidine-5-carboxamide],D (D=>20 uM)
6,NC(=O)c1cnc(NC2(c3ccc(F)cc3)CCC2)nc1C(F)(F)F [2-{[(4-fluorophenyl)cyclobutyl]amino}-4-(trifluoromethyl)pyrimidine-5-carboxamide],B (B=1-10 uM)
7,O=C(O)c1cnc(NC2(c3ccc(F)cc3)CCC2)nc1C(F)(F)F [2-{[(4-fluorophenyl)cyclobutyl]amino}-4-(trifluoromethyl)pyrimidine-5-carboxylic acid],D (D=>20 uM)
8,C[S+]([O-])c1ccccc1C(C)(C)Nc1ncc(-c2cccc(C(N)=O)c2)cn1 (stereo not shown) [3-(2-(2-(2-(methylsulfinyl)phenyl)propan-2-ylamino)pyrimidin-5-yl)benzamide],D (D=>20 uM)
9,C[S+]([O-])c1cccnc1C(C)(C)Nc1ncc(-c2cccc(C(N)=O)c2)cn1 (stereo not shown) [3-(2-(2-(3-(methylsulfinyl)pyridin-2-yl)propan-2-ylamino)pyrimidin-5-yl)benzamide],D (D=>20 uM)
10,C[S+]([O-])c1ccc(C(C)(C)Nc2ncc(-c3cccc(C(N)=O)c3)cn2)cc1 (stereo not shown) [3-(2-(2-(4-(methylsulfinyl)phenyl)propan-2-ylamino)pyrimidin-5-yl)benzamide],D (D=>20 uM)
11,NC(=O)c1cccc(-c2cnc(N)nc2)c1 [3-(2-aminopyrimidin-5-yl)benzamide],D (D=>20 uM)
12,CC(C)(Nc1ncc(-c2cc(C(N)=O)ccc2F)cn1)c1cccnc1Cl [3-(2-{[1-(2-chloro(3-pyridyl))-isopropyl]amino}pyrimidin-5-yl)-4-fluorobenzamide],B (B=1-10 uM)
13,NC(=O)c1ccc(F)c(-c2cnc(N[C@]3(c4ncccc4Cl)C[C@H](F)C3)nc2)c1 [3-(2-{[1-(3-chloro(2-pyridyl))-3-fluorocyclobutyl]amino}pyrimidin-5-yl)-4-fluorobenzamide],A (A=<1 uM)
14,"CC(C)(Nc1ncc(-c2noc(C(N)=O)n2)cn1)c1ncccc1Cl [3-(2-{[1-(3-chloro(2-pyridyl))-isopropyl]amino}pyrimidin-5-yl)-1,2,4-oxadiazole-5-carboxamide]",D (D=>20 uM)
15,Cn1nc(-c2cnc(NC(C)(C)c3ncccc3Cl)nc2)cc1C(N)=O [3-(2-{[1-(3-chloro(2-pyridyl))-isopropyl]amino}pyrimidin-5-yl)-1-methylpyrazole-5-carboxamide],D (D=>20 uM)
16,CC(C)(Nc1ncc(-c2cc(C(N)=O)ccc2F)cn1)c1ncccc1Cl [3-(2-{[1-(3-chloro(2-pyridyl))-isopropyl]amino}pyrimidin-5-yl)-4-fluorobenzamide],A (A=<1 uM)
17,CC(C)(Nc1ncc(-c2cccc(C(N)=O)c2)cn1)c1ncccc1Cl [3-(2-{[1-(3-chloro(2-pyridyl))-isopropyl]amino}pyrimidin-5-yl)benzamide],A (A=<1 uM)
18,CC(C)(Nc1ncc(-c2cc(C(N)=O)on2)cn1)c1ncccc1Cl [3-(2-{[1-(3-chloro(2-pyridyl))-isopropyl]amino}pyrimidin-5-yl)isoxazole-5-carboxamide],C (C=10-20 uM)
